Consider three molecules from patent US6689762B1, “Composition and methods for treatment of HIV infection” (Enzon Pharmaceuticals, Inc., priority 1998, dated 2004).

The test system of test [1] is CEM/0 cells. Briefly: cells. The format is cell-based, human. The note with it: for IC50: Homo sapiens, CCRF-CEM. From the text:
A human leukemic T-cell line, hereafter referred to as CEM/0 is used for this experiment. PEG-ASNase is obtained from Rhone-Poulenc Rorer Pharmaceuticals Inc under the tradename Oncaspar®. Saquinavir is obtained from Roche Laboratories under the tradename Invirase™. RPMI-1640 media obtained from Irvine Scientific, Irvine Calif. is enriched with 10% Fetal Calf Serum obtained from Gemini Biosource, Calabasas, Calif., 5% 1M Hepes buffer solution and 5% non-essential amino acids obtained from Irvine Scientific, Irvine Calif.
An experiment is carried out to determine the cytotoxicity of Saquinavir and PEG-ASNase. For determining the cytotoxicity of either compound alone, 2×10^5 cells/ml are incubated in 24-well plates with the following drug concentrations:
(§1) In all in vitro studies, the negative control cells are incubated in a drug-free media for the same duration and under the same conditions as the experimental samples. Cell density is measured via cell counting using a Coulter Counter coupled with a Coulter Channelyzer for each of the experimental flasks at 24, 48 and 72 hours after incubation. Additionally, Trypan Blue Exclusion tests are performed for each of these experimental conditions. Cell numbers are corrected for the viability determined by the Trypan Blue test and presented as a percentage of the untreated control.

Test [2] has as its system CEM/0 cells. As to the kind of experiment: Sequential and concurrent combination cytotoxicity of PEG-ASNase and Saquinavir. It counts as cell-based, human. The note with it: CEM/0 T-cells. As to the method:
In this experiment, the described range of concentrations is used to investigate the combined regimen of Saquinavir and PEG-ASNase. For the sequential combination studies of PEG-ASNase followed by Saquinavir, cells are incubated with the concentrations provided below of PEG-ASNase for 24 hours. Then Saquinavir, in the concentrations provided below, is added to the appropriate cells for an additional twenty-four (24) hours, bringing the total exposure time to forty-eight (48) hours. The exposure involved 2×10^5 cells/ml being incubated in a tissue culture flask with concentrations of the drugs investigated as provided below. […] The drug concentrations used are as follows:
as §1
The reverse sequence is also tested. […] Saquinavir is administered and the cells incubated for twenty-four (24) hours followed by addition of PEG-ASNase and an additional incubation period of twenty-four (24) hours, bringing the total exposure time to forty-eight (48) hours. Other than the drug sequence, the methodology is the same as that mentioned immediately above. The concurrent combination regimen is also tested using the same methodology. […] The concurrent combined methodology experiment had the samples exposed to forty-eight (48) hours of concurrent combined exposure.

The subject of test [3] is HIV-RT in supernatants of HIV-1 infected CEM/0 T-cells. As to the kind of experiment: HIV-RT ELISA in supernatants of HIV-1 infected CEM/0 T-cells. It counts as cell-based. The note with it: for inhibition of HIV-RT in supernatants: Experiment 8 text, day 7; for HIV-RT (negative values set to 0): Table 6, per specimen. As to the method: The following is a general procedure for the HIV-reverse transcriptase assay:
Materials and Methods: The cell line used for this experiment is CEM/0, a human T-cell leukemic cell line. PEG-ASNase (ONCASPAR) is provided by Rhone-Poulenc Rorer. Saquinavin (SQ) is commercially available. AZT is purchased from Sigma. […] The drug concentrations used are as follows:
Briefly, 3×10^6 cells/ml are stimulated with PHA+ media for 48 hours at 37° C. with 5% CO2. Also, the same number of cells are incubated in PHA free media for 48 hours to serve as the negative control. At this point the cells are inoculated with the HIV-1 virus as per standard protocol. Note that in this experiment, the HIV containing supernatant from the […] healthy human peripheral mononuclear cells (PBMC) is not removed from the PHA-stimulated CEM/0 cell culture. […] These virus particles are released by already infected T-cells and/or lymph nodes of patients.
(§2) The experimental drugs are added to the cells in the appropriate concentrations at the same time as viral inoculation or 90 minutes after the viral incubation, a time sufficient for the T-cells to be infected and start producing new HIV-1 virus particles. The control cells are resuspended in drug-free media for the duration of the exposure which lasted seven days. Aliquots of media from the control flasks only are obtained on day 5 post Rx. At day seven, three 1 ml each, aliquots of media are removed from the flasks and stored under liquid nitrogen. In addition, the remaining cells are split into three and then pelleted and stored at −80° C.

For test [4], the system named is HIV-RNA in HIV-1 infected CEM/0 T-cell pellets. Briefly: HIV-1 quantitative RNA assay (HIV-1 Monitor) in CEM/0 T-cell pellets. The format is cell-based. The note with it: for Log 10 N: Table 2, per flask; for mean, X3: Table 7; for N*: Table 7, per specimen, day 7, PEG 0.400 IU/ml, SAQ 25 uM, AZT 1 uM, MISID 0.685 uM, combinations PEG 0.233 IU/ml + SAQ 14.52 uM; for % control: Table 7 and text of Experiment 9. As to the method:
This experiment is carried out using a similar procedure, and the same concentrations of materials as in Experiment 1, however the exposure of HIV-RNA in T-cell pellets to a combination of PEG-ASNase and Saquinavir is measured. […] It should be noted that “PEG” in Table 2 represents PEG-ASNase.
The cell line used for these studies is CEM/0, a human T-cell leukemic cell line. PEG-ASNase (ONCASPAR) is provided by Rhone-Poulenc Rorer. Saquinavin is commercially available. AZT is purchased from Sigma. MISID, a ribonucleotide reductase inhibitor, is synthesized as indicated in Nandy P, Lien E J, Avramis V I, Med. Chem. Res. 1995, 5:664-679. RPMI-1640 media (Irvine Scientific, Irvine, Calif.), is enriched with 10% Fetal Calf Serum (Gemini Biosource, Calabasas, Calif.), 5% 1M Hepes Buffer solution and 5% Non-essential amino acids (Irvine Scientific, Irvine, Calif.). The drug concentrations used are as follows:
Briefly, 3×10^6 cells/ml are stimulated with PHA+ media for 48 hours at 37° C. with 5% CO2. Also, the same number of cells are incubated in PHA free media for 48 hours to serve as the negative control. At this point the cells are inoculated with the HIV-1 virus as per standard protocol. Note that in this experiment, the HIV containing supernatant from the PHA-stimulated healthy human peripheral mononuclear cells (PBMC) is not removed from the PHA-stimulated CEM/0 cell culture. […] These virus particles are released by already infected T-cells and/or lymph nodes of patients.
as §2
The samples produced from this experiment are itemized. The cell pellets of the cellular cultures (see Experiment 7) from the 90 minute viral incubation flasks are assayed for HIV-RNA quantitative assay using a kit for the assay, non-radioactive. The standard curve is determined and the HIV-RNA levels for the experimental samples are calculated and reported previously.

Test [5] relates to asparagine, glutamine, and aspartic acid levels of CEM/0 cells. As to the kind of experiment: Determination of amino acid levels after PEG-ASNase exposure (HPLC). The format is cell-based, human. The note with it: 24 hours exposure. How it is done:
Experiments to determine the amino acid level in cell suspensions and cell media are performed to determine the effect of PEG-ASNase on the amino acid levels, particularly the levels of asparagine, glutamine, and aspartic acid.
Samples of 50 μl media and 10 μl of 1 mM aminoadopic acid are added to 450 μl of cold methanol in 1.5 ml microfuge tubes. The mixtures are vortexed and centrifuged at 8700 g for two minutes. The supernatants are transferred to borosilicate glass test tubes (13×100 mm) and lyophilized. The specimens are stored at −20° C. until they are analyzed by HPLC. Prior to HPLC analysis, the samples are dissolved in a buffer containing 95% […] disodium hydrogen phosphate and 5% acetonitrile.

Values joined by “and” are separate entries in the source; they are usually repeats but may differ in a detail not shown here. Equal values may be shown once.

`CC(C)(C)NC(=O)[C@@H]1C[C@@H]2CCCC[C@@H]2CN1C[C@@H](O)[C@H](Cc1ccccc1)NC(=O)[C@H](CC(N)=O)NC(=O)c1ccc2ccccc2n1` [Saquinavir]: the IC50 was 26 µM in the test on CEM/0 cells [1] (72 h, read-out: IC50 in CEM/0 cells); 21 to 28 µM with CEM/0 cells [1] (read-out: IC50 in CEM/0 cells); 25 µM in the test on CEM/0 cells [1] (read-out: Saquinavir IC50 alone); 14.5 µM in the test with CEM/0 cells [2] (Homo sapiens, CCRF-CEM, read-out: IC50 in combination, Saquinavir part, concurrent combination of PEG-ASNase and Saquinavir); 14.5 µM in the test on CEM/0 cells [2] (read-out: IC50 in combination, Saquinavir part, concurrent combination of PEG-ASNase and Saquinavir, listed as SAQ). Moreover, the “kill compared to untreated control” value with CEM/0 cells [1] (Saquinavir 10 μM) came to 8.76%. Also, the “kill compared to control cells” value in the test with CEM/0 cells [1] (Saquinavir 100 μM, highest concentration tested) was determined as 99.50%. The “cell kill” value in the test with CEM/0 cells [1] (Saquinavir 0.001 to 1 μM) is listed as “no cell kill”. Also, the “inhibition of HIV-RT in supernatants” value in test [3] is listed as “Great inhibition”. In addition, in test [3], the “HIV-RT (negative values set to 0)” value was 0 pg/well. Also, in test [4] (Experiment 5 text), the “inhibition of HIV-1 RNA production in comparison with the control” value is given as “approximately 36%”. Besides, the “Log 10 N” value in test [4] (listed as SAQ) is 5.06 and 5.09. Besides, in test [4], the “mean, X3” value is 125628 copies/cell pellet. Also, the “N*” value in test [4] (listed as SAQ) was 138583 copies/cell pellet and 109522 copies/cell pellet and 128780 copies/cell pellet. Further, the “% control” value in test [4] amounted to 59%.

For the molecule `Cc1cn([C@H]2C[C@H](N=[N+]=[N-])[C@@H](CO)O2)c(=O)[nH]c1=O` [AZT, zidovudine], in test [3], the “inhibition of HIV-RT in supernatants” value is listed as “Great inhibition” and the “HIV-RT (negative values set to 0)” value amounted to 0 pg/well. In test [4], the “mean, X3” value came out at 102473 copies/cell pellet; the “N*” value was 107269 copies/cell pellet and 97933 copies/cell pellet and 102217 copies/cell pellet; the “% control” value is reported as 48%.

B1: PEG-ASNase: asparaginase conjugated with polyethylene glycol (PEG); sold under the name ONCASPAR by Rhône-Poulenc Rorer (conjugate, UniProt P00805 23-348, looked up)
L-asparaginase 2: LPNITILATGGTIAGGGDSATKSNYTVGKVGVENLVNAVPQLKDIANVKGEQVVNIGSQDMNDNVWLTLAKKINTDCDKTDGFVITHGTDTMEETAYFLDLTVKCDKPVVMVGAMRPSTSMSADGPFNLYNAVVTAADKASANRGVLVVMNDTVLDGRDVTKTNTTDVATFKSVNYGPLGYIHNGKIDYQRTPARKHTSDTPFDVSKLNELPKVGIVYNYANASDLPAKALVDAGYDGIVSAGVGNGNLYKSVFDTLATAAKTGTAVVRSSRVPTGATTQDAEVDDAKYGFVASGTLNPQKARVLLQLALTQTKDPQQIQQIFNQY
modifications: PEG conjugate (pegaspargase)
notes: asparaginase conjugated with polyethylene glycol (PEG); sold under the name ONCASPAR by Rhône-Poulenc Rorer
On to B1, for which, in the test on CEM/0 cells [1] (CEM/0 T-cells, single agent), the “PEG-ASNase IC50 alone” value was 0.4 IU/ml and 0.40 IU/ml. For the same molecule, the “concentration that produces a cytostatic condition” value in the test on CEM/0 cells [1] (CEM/0 cells in vitro, over 72 hours) is on record as “approximately 0.5 IU/ml”. In the test on CEM/0 cells [1] (PEG-ASNase 0.03, 0.1, 0.2, 0.3 and 0.4 IU/ml, compared to control growth rate), the “effect on cell growth” value is on record as “marginally effective in preventing cell growth”. In addition, the “IC50 in combination, PEG-ASNase part” value in the test on CEM/0 cells [2] (concurrent combination of PEG-ASNase and Saquinavir) is reported as 0.233 IU/ml. The “IC50 in combination, PEG-ASNase part” value in the test with CEM/0 cells [2] (concurrent combination of PEG-ASNase and Saquinavir, listed as PEG) stood at 0.23 IU/ml. Also, the “glutamine level, % of the untreated control” value in test [5] (highest PEG-ASNase concentration) is listed as “less than 3.0%”. In addition, in test [5] (various PEG-ASNase concentrations), the “asparagine level, % of the untreated control” value is on record as “less than 3.0%”. Also, the “HIV-RT (negative values set to 0)” value in test [3] was determined as 0 pg/well. In test [4] (listed as PEG), the “Log 10 N” value is 5.26 and 5.42; the “N*” value was 183977 copies/cell pellet and 156304 copies/cell pellet and 180062 copies/cell pellet. Further, in test [4], the “mean, X3” value is recorded as 173448 copies/cell pellet and the “% control” value stood at 81%. Further, the “effect on HIV-RNA in cell pellets” value in test [4] (text of Experiments 5, 6 and 9) is “no apparent effect”.
